Measured values from US5300279A, “Organic amine phosphonic acid complexes for the treatment of calcific tumors” (The Dow Chemical Company, priority 1990, dated 1994).
Read-outs that look alike come from different tables or passages of the source.

Experiments:
lesion / normal bone = conditions: compared with Tc-99m-MDP
Experimental: Thus, two holes were drilled into the surface of the tibia of a rabbit in order to damage the bone. Seven to ten days later, the animal was injected with the radionuclide composition. After three hours, the rabbit was anesthetized and imaged using an Anger camera and pinhole collimator.

[1] = rabbits, three hour, averaged for 5 rabbits
Experimental: Biolocalization studies were also performed in rabbits. The rabbits were injected with 100-250 microliters of the composition into the marginal ear vein. In studies where blood clearance was measured, blood samples were taken through a heparinized cannula placed in the marginal vein of the ear not used for injection. Three hours after injection, a blood sample was taken from each rabbit by cardiac puncture and each animal was sacrificed by injection of a commercial euthanasia solution. After sacrifice, images were obtained by placing the carcass directly on the face of a large field-of-view scintillation camera.
Whenever in the following examples and tables data is presented on the administered dose of radioactivity, the numbers given represent the percentage of the administered dose which localized in the indicated tissue. The ratios of radioactivity observed in bone relative to blood and muscle were calculated based on the percent dose per gram in the bone and in the blood and muscle. Whenever the ratios of radioactivity found in bone to that found in nonosseous tissue is given, the calculation was made as indicated above on a percent dose per gram basis.
Compositions containing Sm-153-EDTMP (compositions prepared as in Example 2) were also tested in rabbits.

[2] = for Percent Injected Dose Remaining in Whole Blood, Average: average of 5 patients
Experimental: Sterile pyrogen-free vials were prepared to contain 210 mg of EDTMP and 140 mg NAOH by freeze-drying a solution containing appropriate amounts of EDTMP and NAOH. The vials were sealed under vacuum. To prepare one of the compositons of the invention, 6 ml of a solution containing Sm-153 (approximately 3×10^-4 M in Sm) in 0.1M HCl was injected into the sealed vial through a septum.
Five humans with metastatic bone cancer (three with lung cancer and two with prostate cancer as the primary site) were injected with a composition containing 2 mCi of Sm-153-EDTMP. Blood samples were taken intermittently to determine the fraction of the Sm-153 remaining in the blood.

cancerous lesions = experiment: scintigraphic imaging in humans with metastatic bone cancer; format: in vivo
Experimental: Scintigraphic images were obtained two hours post injection and were used for comparison with images previously obtained using Tc-99m-HDP (hydroxymethylenediphosphonate), a commercially available diagnostic bone imaging agent.
The uptake observed for each radionuclide in selected lesions compared to its uptake in normal bone was determined using digitized images.

O=P([O-])(O)CN(CCN(CP(=O)([O-])O)CP(=O)(O)O)CP(=O)([O-])O.[153Sm+3] [Example 2]
lesion to normal bone ratio (lesion / normal bone): approximately equal to that of Tc-99m-MDP | % Dose in Blood [1]: 0.12 % Dose | % Dose in Bone Marrow [1]: 0.15 % Dose | % Dose in Liver [1]: 0.95 % Dose | % Dose in Skeleton [1]: 66 % Dose | % Dose in Urine ([1]; 180 min): 34 % Dose | Bone/Blood ([1]; ratio of percent dose per gram): 900 | Bone/Muscle ([1]; ratio of percent dose per gram): 1200 | Percent Injected Dose Remaining in Whole Blood, Average ([2]; 5 min.): 31.63 Percent Injected Dose | Percent Injected Dose Remaining in Whole Blood, Average ([2]; 15 min.): 20.90 Percent Injected Dose | Percent Injected Dose Remaining in Whole Blood, Average ([2]; 30 min.): 15.77 Percent Injected Dose | Percent Injected Dose Remaining in Whole Blood, Average ([2]; 60 min.): 9.53 Percent Injected Dose | Percent Injected Dose Remaining in Whole Blood, Average ([2]; 120 min.): 5.17 Percent Injected Dose | Percent Injected Dose Remaining in Whole Blood, Average ([2]; 180 min.): 3.28 Percent Injected Dose | Percent Injected Dose Remaining in Whole Blood, Average ([2]; 240 min.): 2.08 Percent Injected Dose | concentration of radioactivity in red cells ([2]; humans): no significant concentration of radioactivity in red cells | radioactivity in the plasma fraction ([2]; humans): all of the measured activity was in the plasma fraction | clearance of radioactivity from the blood ([2]; humans, words): the radioactivity cleared very rapidly from the blood | Sm-153 concentration in cancerous lesions (cancerous lesions; compared with dogs): high, selective and similar to that observed in dogs | localization of radioactivity in lesions vs normal bone compared with Tc-99m-HDP (cancerous lesions; digitized images): localization of radioactivity in the lesions to a similar extent | visibility of cancerous lesions compared with Tc-99m-HDP (cancerous lesions; qualitative comparison of images): all cancerous lesions observable with Tc-99m-HDP are seen equally well with Sm-153-EDTMP | retention of radioactivity in the kidneys (cancerous lesions; two hour post injection images): no observable retention of radioactivity in the kidneys | localization of Sm-153 in scintigraphic images (cancerous lesions; two hours post injection): localized in skeletal tissue with no significant uptake and retention in non-osseous tissues
